Patent publication US10766903B2 (ALMAC DISCOVERY LIMITED, priority 2016, dated 2020)
Counter-ions that a name gives are not always drawn.

These molecules were tested against USP7 (Homo sapiens (Human), UniProt Q93009) (assay: USP7 fluorescence polarisation (FP) biochemical assay, ubiquitin-Lys-TAMRA substrate). Settings: Table 4, biochemical assay; average of at least duplicate experiments; read-out: USP7 IC50.
Method: Measurement of USP7 Inhibitory Activity
USP7 activity was monitored in a fluorescence polarisation (FP) homogeneous assay using the isopeptide ubiquitin-Lys-TAMRA substrate (U-558, Boston Biochem). Full-length USP7 was purchased from Boston Biochem (His6-USP7FL, E-519). Unless otherwise stated, all other reagents were purchased from Sigma-Aldrich. Enzymatic reactions were conducted in black flat-bottom polystyrene 384-well plates (Nunc) and 15 μL total volume. USP7 (2.5 nM, 5 μL) was incubated in assay buffer (50 mM HEPES (pH 7.2), 150 mM NaCl, 0.5 mM EDTA, 5 mM DTT, 0.05% BSA (w/v), 0.05% CHAPS) in the presence or absence of inhibitor (5 μl). Inhibitors were stored as 10 mM DMSO stocks in an inert environment (low humidity, dark, low oxygen, room temperature) using a Storage Pod System and serial dilutions were prepared in buffer just prior to the assay (from 200 to 0.1 μM, 8 dp curve). […] FP was measured every 15 min over a period of 1.5 h (within the linear range of the assay) using a Synergy 4 plate reader (BioTek) exciting at 530 nm and measuring the amount of parallel and perpendicular light at 575 nm. The FP signal was subsequently normalised to the control without compound present.

USP7, sequence (Q93009 whole entry): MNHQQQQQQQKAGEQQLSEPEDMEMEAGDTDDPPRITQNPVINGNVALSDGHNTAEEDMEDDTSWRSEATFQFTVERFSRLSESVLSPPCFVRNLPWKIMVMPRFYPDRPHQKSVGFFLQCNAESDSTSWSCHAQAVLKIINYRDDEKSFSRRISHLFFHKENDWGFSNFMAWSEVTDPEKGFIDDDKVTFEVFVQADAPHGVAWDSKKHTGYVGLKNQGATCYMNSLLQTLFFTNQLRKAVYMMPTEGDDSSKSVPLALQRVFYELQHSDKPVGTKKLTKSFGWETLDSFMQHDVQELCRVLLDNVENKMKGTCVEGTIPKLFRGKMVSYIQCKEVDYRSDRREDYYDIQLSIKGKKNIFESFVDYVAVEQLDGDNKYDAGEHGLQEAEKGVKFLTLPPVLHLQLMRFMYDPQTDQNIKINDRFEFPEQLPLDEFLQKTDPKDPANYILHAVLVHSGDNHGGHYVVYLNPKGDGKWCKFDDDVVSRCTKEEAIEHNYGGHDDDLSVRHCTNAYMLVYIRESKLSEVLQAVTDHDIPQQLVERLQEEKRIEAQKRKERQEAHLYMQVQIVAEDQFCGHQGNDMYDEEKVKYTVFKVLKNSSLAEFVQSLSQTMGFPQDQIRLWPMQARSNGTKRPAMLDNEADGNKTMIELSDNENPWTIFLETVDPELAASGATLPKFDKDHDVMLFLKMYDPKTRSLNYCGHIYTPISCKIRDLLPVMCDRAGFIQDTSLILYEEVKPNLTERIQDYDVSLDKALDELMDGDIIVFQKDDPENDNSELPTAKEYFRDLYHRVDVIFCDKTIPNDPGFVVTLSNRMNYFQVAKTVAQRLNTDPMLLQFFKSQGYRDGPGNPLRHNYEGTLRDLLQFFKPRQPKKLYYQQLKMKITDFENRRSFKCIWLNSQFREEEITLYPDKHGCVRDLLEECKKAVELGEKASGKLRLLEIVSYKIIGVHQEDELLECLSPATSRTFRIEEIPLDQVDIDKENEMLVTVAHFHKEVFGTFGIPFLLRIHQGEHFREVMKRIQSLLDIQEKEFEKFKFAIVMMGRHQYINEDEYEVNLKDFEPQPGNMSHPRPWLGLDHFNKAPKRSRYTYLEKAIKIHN

First: O=C(c1cnc(C2CC2)o1)N1CCC(O)(Cn2cnc3c(nnn3-c3ccccc3)c2=O)CC1 [Example 198, 6-((1-(2-Cyclopropyloxazole-5-carbonyl)-4-hydroxypiperidin-4-yl)methyl)-3-phenyl-3H-[1,2,3]triazolo[4,5-d]pyrimidin-7(6H)-one]
Second: O=C(CC(C1CC1)C1CC1)N1CCC(O)(Cn2cnc3c(nnn3-c3ccccc3)c2=O)CC1 [Example 187, 6-((1-(3,3-Dicyclopropylpropanoyl)-4-hydroxypiperidin-4-yl)methyl)-3-phenyl-3H-[1,2,3]triazolo[4,5-d]pyrimidin-7(6H)-one]
The IC50 of the first is higher: 1000 to 200000 nM for the first, 250 to 999 nM for the second.

`C[C@H](CC(=O)N1CCC(O)(Cn2cnc(N3CC4(CN(C)CCO4)C3)cc2=O)CC1)c1ccccc1` [Example 171, (R)-3-((4-hydroxy-1-(3-phenylbutanoyl)piperidin-4-yl)methyl)-6-(8-methyl-5-oxa-2,8-diazaspiro[3.5]nonan-2-yl)pyrimidin-4(3H)-one] and `C[C@H](CC(=O)N1CCC(O)(Cn2cnc(N3CCOCC3)cc2=O)CC1)c1ccccc1` [Example 100, (R)-3-((4-Hydroxy-1-(3-phenylbutanoyl)piperidin-4-yl)methyl)-6-morpholinopyrimidin-4(3H)-one] fall in the same range of IC50: 1000 to 200000 nM for the first, 1000 to 200000 nM for the second.

First: Cn1cc(-c2cccc(-n3c(Cl)cc4c(=O)n(CC5(O)CCN(C(=O)c6cnc(C7CC7)o6)CC5)cnc43)c2)cn1 [Example 211, 6-Chloro-3-((1-(2-cyclopropyloxazole-5-carbonyl)-4-hydroxypiperidin-4-yl)methyl)-7-(3-(1-methyl-1H-pyrazol-4-yl)phenyl)-3H-pyrrolo[2,3-d]pyrimidin-4(7H)-one]
Second: CC1(C(=O)N2CCC(O)(Cn3cnc4c(cc(Cl)n4-c4cccc(-n5cc(C(F)(F)F)cn5)c4)c3=O)CC2)CC1 [Example 225, 6-Chloro-3-((4-hydroxy-1-(1-methylcyclopropanecarbonyl)piperidin-4-yl)methyl)-7-(3-(4-(trifluoromethyl)-1H-pyrazol-1-yl)phenyl)-3H-pyrrolo[2,3-d]pyrimidin-4(7H)-one]
The IC50 of the first is lower: less than 250 nM for the first, 1000 to 200000 nM for the second. The first is the more potent here.

`CNCc1ccc(-c2c3ncn(CC4(O)CCN(C(=O)C[C@H](c5ccccc5)C(F)(F)F)CC4)c(=O)c3nn2C)cc1` [Example 83, (R)-6-((4-Hydroxy-1-(4,4,4-trifluoro-3-phenylbutanoyl)piperidin-4-yl)methyl)-2-methyl-3-(4-((methylamino)methyl)phenyl)-2H-pyrazolo[4,3-d]pyrimidin-7(6H)-one] and `CCOC(=O)NCc1ccc(-c2c3ncn(CC4(O)CCN(C(=O)C[C@@H](C)c5ccccc5)CC4)c(=O)c3nn2C)cc1` [Example 194, (R)-Ethyl 4-(6-((4-hydroxy-1-(3-phenylbutanoyl)piperidin-4-yl)methyl)-2-methyl-7-oxo-6,7-dihydro-2H-pyrazolo[4,3-d]pyrimidin-3-yl)benzylcarbamate] cannot be ordered by IC50: less than 250 nM for the first, less than 250 nM for the second.

`C[C@H](CC(=O)N1CCC(O)(Cn2cnc(N(CCN3CCCC3)c3ccccc3)cc2=O)CC1)c1ccccc1` [Example 121, (R)-3-((4-Hydroxy-1-(3-phenylbutanoyl)piperidin-4-yl)methyl)-6-(phenyl(2-(pyrrolidin-1-yl)ethyl)amino)pyrimidin-4(3H)-one, Formic Acid] and `C[C@H](CC(=O)N1CCC(O)(Cn2cnc(N3CCC(O)CC3)cc2=O)CC1)c1ccccc1` [Example 144, (R)-3-((4-hydroxy-1-(3-phenylbutanoyl)piperidin-4-yl)methyl)-6-(4-hydroxypiperidin-1-yl)pyrimidin-4(3H)-one] fall in the same range of IC50: 1000 to 200000 nM for the first, 1000 to 200000 nM for the second.

Compared with `CC1(C(=O)N2CCC(O)(Cn3cnc4c(cc(Cl)n4-c4cccc(N5CCOCC5)c4)c3=O)CC2)CC1` [Example 226, 6-Chloro-3-((4-hydroxy-1-(1-methylcyclopropanecarbonyl)piperidin-4-yl)methyl)-7-(3-morpholinophenyl)-3H-pyrrolo[2,3-d]pyrimidin-4(7H)-one], `Cn1nc2c(=O)n(CC3(O)CCN(C(=O)C4(C)CC4)CC3)cnc2c1-c1ccc(C(=O)O)cc1` [Example 245, 4-(6-((4-Hydroxy-1-(1-methylcyclopropane-1-carbonyl)piperidin-4-yl)methyl)-2-methyl-7-oxo-6,7-dihydro-2H-pyrazolo[4,3-d]pyrimidin-3-yl)benzoic Acid] is higher in IC50: less than 250 nM for the first, 1000 to 200000 nM for the second. The first is the more potent here.

`Cc1c(Cl)ncn(CC2(O)CCN(C(=O)C[C@@H](C)c3ccccc3)CC2)c1=O` [Example 44, (R)-6-Chloro-3-((4-hydroxy-1-(3-phenylbutanoyl)piperidin-4-yl)methyl)-5-methylpyrimidin-4(3H)-one] and `C[C@H](CC(=O)N1CCC(O)(Cn2cnc3c(ncn3C)c2=O)CC1)c1ccccc1` [Example 15, (R)-1-((4-Hydroxy-1-(3-phenylbutanoyl)piperidin-4-yl)methyl)-9-methyl-1H-purin-6(9H)-one] fall in the same range of IC50: 1000 to 200000 nM for the first, 1000 to 200000 nM for the second.

`C[C@H](CC(=O)N1CCC(O)(Cn2cnc(N3CCC(C)(O)C3)cc2=O)CC1)c1ccccc1` (stereo partly drawn) [Example 150, 3-((4-hydroxy-1-((R)-3-phenylbutanoyl)piperidin-4-yl)methyl)-6-(3-hydroxy-3-methylpyrrolidin-1-yl)pyrimidin-4(3H)-one] and `COc1cc(=O)n(CC2(O)CCN(C(=O)C[C@@H](C)c3ccccc3)CC2)cn1` [Example 9, (R)-3-((4-Hydroxy-1-(3-phenylbutanoyl)piperidin-4-yl)methyl)-6-methoxypyrimidin-4(3H)-one] fall in the same range of IC50: 1000 to 200000 nM for the first, 1000 to 200000 nM for the second.

`Cn1nc2c(=O)n(CC3(O)CCN(C(=O)CCc4ccccc4)CC3)cnc2c1C(F)(F)F` [Example 95, 6-((4-Hydroxy-1-(3-phenylpropanoyl)piperidin-4-yl)methyl)-2-methyl-3-(trifluoromethyl)-2H-pyrazolo[4,3-d]pyrimidin-7(6H)-one] and `C[C@H](CC(=O)N1CCC(O)(Cn2cnc3c(nc(C(F)(F)F)n3C)c2=O)CC1)c1ccccc1` [Example 96, (R)-1-((4-Hydroxy-1-(3-phenylbutanoyl)piperidin-4-yl)methyl)-9-methyl-8-(trifluoromethyl)-1H-purin-6(9H)-one] fall in the same range of IC50: 1000 to 200000 nM for the first, 1000 to 200000 nM for the second.

`C=C(C)[C@H](C)CC(=O)N1CCC(O)(Cn2cnc3c(-c4ccccc4)n(C)nc3c2=O)CC1` [Example 35, (R)-6-((1-(3,4-Dimethylpent-4-enoyl)-4-hydroxypiperidin-4-yl)methyl)-2-methyl-3-phenyl-2H-pyrazolo[4,3-d]pyrimidin-7(6H)-one] and `Cn1nc2c(=O)n(CC3(O)CCN(C(=O)c4cnc(C5CC5)o4)CC3)cnc2c1-c1ccc(CN)cc1` [Example 238, 3-(4-(Aminomethyl)phenyl)-6-((1-(2-cyclopropyloxazole-5-carbonyl)-4-hydroxypiperidin-4-yl)methyl)-2-methyl-2,6-dihydro-7H-pyrazolo[4,3-d]pyrimidin-7-one] fall in the same range of IC50: 250 to 999 nM for the first, 250 to 999 nM for the second.

`C[C@H](CC(=O)N1CCC(O)(CN2C(=O)Cc3ccccc32)CC1)c1ccccc1` [Example 126, (R)-1-((4-Hydroxy-1-(3-phenylbutanoyl)piperidin-4-yl)methyl)indolin-2-one] and `C[C@H](CC(=O)N1CCC(O)(Cc2cnc3c(-c4ccccc4)cccn3c2=O)CC1)c1ccccc1` [Example 19, (R)-3-((4-Hydroxy-1-(3-phenylbutanoyl)piperidin-4-yl)methyl)-9-phenyl-4H-pyrido[1,2-a]pyrimidin-4-one] fall in the same range of IC50: 1000 to 200000 nM for the first, 1000 to 200000 nM for the second.

With `C[C@H](CC(=O)N1CCC(O)(Cn2cnc(NCCN3CCC[C@H]3C)cc2=O)CC1)c1ccccc1` [Example 114, 3-((4-Hydroxy-1-((R)-3-phenylbutanoyl)piperidin-4-yl)methyl)-6-((2-((R)-2-methylpyrrolidin-1-yl)ethyl)amino)pyrimidin-4(3H)-one, Formic Acid] the IC50 was less than 250 nM.

Same assay, conditions: USP7 IC50, Table 4, biochemical assay; average of at least duplicate experiments

`C[C@H](CC(=O)N1CCC(O)(Cn2cnc(N3CCC[C@H](N)C3)cc2=O)CC1)c1ccccc1` [Example 47, 6-((S)-3-Aminopiperidin-1-yl)-3-((4-hydroxy-1-((R)-3-phenylbutanoyl)piperidin-4-yl)methyl)pyrimidin-4(3H)-one hydrochloride] and `C[C@H](CC(=O)N1CCC(O)(Cn2cnc(N3CC4(CCCN4C)C3)cc2=O)CC1)c1ccccc1` [Example 178, (R)-3-((4-hydroxy-1-(3-phenylbutanoyl)piperidin-4-yl)methyl)-6-(5-methyl-2,5-diazaspiro[3.4]octan-2-yl)pyrimidin-4(3H)-one] fall in the same range of IC50: 250 to 999 nM for the first, 250 to 999 nM for the second.

`Cc1ccc([C@@H](CC(=O)N2CCC(O)(Cn3cnc4c(-c5ccc(CN)cc5)n(C)nc4c3=O)CC2)C(F)(F)F)s1` [Example 125, (S)-3-(4-(Aminomethyl)phenyl)-6-((4-hydroxy-1-(4,4,4-trifluoro-3-(5-methylthiophen-2-yl)butanoyl)piperidin-4-yl)methyl)-2-methyl-2H-pyrazolo[4,3-d]pyrimidin-7(6H)-one] and `CC(C)NCCNc1cc(=O)n(CC2(O)CCN(C(=O)C[C@@H](C)c3ccccc3)CC2)cn1` [Example 142, (R)-3-((4-hydroxy-1-(3-phenylbutanoyl)piperidin-4-yl)methyl)-6-((2-(isopropylamino)ethyl)amino)pyrimidin-4(3H)-one] fall in the same range of IC50: 250 to 999 nM for the first, 250 to 999 nM for the second.

`C[C@H](CC(=O)N1CCC(O)(Cn2cnc(N3C[C@H]4C[C@@H]3CN(C)C4)cc2=O)CC1)c1ccccc1` (single isomer, unassigned) [Example 181] was tested, and the IC50 was 250 to 999 nM.
